# Measured values as given in patent publication US20240389587A1, “COMPOSITIONS AND METHODS FOR CONTROLLING PHYTOPATHOGENIC INFECTIONS” (INSTITUT NATIONAL DE RECHERCHE POUR L'AGRICULTURE, …, priority 2021, published 2024).
# Read-outs that look alike come from different tables or passages of the source.
# Target: T1, IRE1 (Saccharomyces cerevisiae, UniProt P32361)
# T1 construct: endogenous in cells
# Experiment: IRE1 inhibitors screening (inhibition of transcriptional activator HAC1 in yeast)
# Assay type: cell-based
# Excerpt: A series of natural products were screened for their capacity to inhibit the UPR pathway via the inhibition of IRE1 in an in vitro screening test, based inhibition of the transcriptional activator HAC1 in Saccharomyces cerevisiae (the IRE1 protein is the ‘sole effector of the UPR pathway in fungi).
# [1] = in vitro screening, IRE1 activity of less than 80% = retained as IRE1 inhibitor
# T1 sequence (P32361 19-1115): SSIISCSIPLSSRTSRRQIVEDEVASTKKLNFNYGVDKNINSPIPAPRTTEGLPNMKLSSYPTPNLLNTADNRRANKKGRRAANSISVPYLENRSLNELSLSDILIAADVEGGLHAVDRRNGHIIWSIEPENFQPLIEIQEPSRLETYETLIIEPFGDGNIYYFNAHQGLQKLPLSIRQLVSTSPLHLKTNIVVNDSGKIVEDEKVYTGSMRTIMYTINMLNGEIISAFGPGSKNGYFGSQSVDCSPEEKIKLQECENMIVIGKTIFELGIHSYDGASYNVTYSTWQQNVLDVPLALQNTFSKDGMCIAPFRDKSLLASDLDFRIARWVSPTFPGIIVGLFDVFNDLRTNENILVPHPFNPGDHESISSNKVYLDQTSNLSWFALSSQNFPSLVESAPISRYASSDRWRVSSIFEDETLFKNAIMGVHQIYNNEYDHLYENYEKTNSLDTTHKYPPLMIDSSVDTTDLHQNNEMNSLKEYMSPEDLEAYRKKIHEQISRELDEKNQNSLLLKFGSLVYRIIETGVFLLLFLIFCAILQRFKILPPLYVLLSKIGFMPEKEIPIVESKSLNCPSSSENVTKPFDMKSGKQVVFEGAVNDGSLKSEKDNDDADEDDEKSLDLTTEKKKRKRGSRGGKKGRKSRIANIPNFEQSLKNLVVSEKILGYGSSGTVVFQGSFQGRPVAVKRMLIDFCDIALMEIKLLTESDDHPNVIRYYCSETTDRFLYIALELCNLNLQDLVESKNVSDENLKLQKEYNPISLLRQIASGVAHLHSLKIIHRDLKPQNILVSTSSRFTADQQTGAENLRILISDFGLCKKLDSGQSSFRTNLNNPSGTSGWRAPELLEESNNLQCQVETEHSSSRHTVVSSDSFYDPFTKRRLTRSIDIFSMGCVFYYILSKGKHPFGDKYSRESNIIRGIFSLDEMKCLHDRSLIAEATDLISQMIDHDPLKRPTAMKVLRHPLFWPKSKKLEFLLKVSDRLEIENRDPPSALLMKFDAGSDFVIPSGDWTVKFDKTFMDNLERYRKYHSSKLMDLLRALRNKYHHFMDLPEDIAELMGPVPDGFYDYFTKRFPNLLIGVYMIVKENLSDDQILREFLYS
Compound,μ (% activation) ± σ [1],further results
COc1c(O)ccc2oc3ccccc3c(=O)c12 [1-methoxy-2-hydroxy-xanthone],97.9 ± 3.6%,
COc1cc2c(cc1OC)[C@@H]1Cc3ccc(OC)c(OC)c3CN1CC2 [Tétrahydropalmatine],101.8 ± 4.8%,
O=C1C[C@@H](c2ccc(O)cc2)Oc2cc(O)cc(O)c21 [Naringenin],101.1 ± 1.2%,
O=C(O)C1=C[C@@H](O)[C@@H](O)[C@H](O)C1 [Shikimic acid],102.0 ± 6.2%,
(-)-Curine,100.0 ± 3.8%,
"CC(C)=CCc1c(O)cc2oc3ccc(O)cc3c(=O)c2c1O [1,3,7-trihydroxy-2-prenylxanthone]",89.7 ± 0.6%,
COc1ccc2c(c[n+](C)c3c4cc5c(cc4ccc23)OCO5)c1OC [Chelerythrine],103.2 ± 3.6%,
COc1c(O)cc2oc3cc4c(c(O)c3c(=O)c2c1CC=C(C)C)C=CC(C)(C)O4 [9-hydroxycalabaxanthone],103.5 ± 2.8%,
COc1c(O)ccc2c(=O)c3c(O)cc4c(c3oc12)C(C)(C)C(C)O4 (stereo not shown) [5-O-methyl-2-deprenylrheediaxanthone B],91.6 ± 3.3%,
C[C@H]1C(=O)CC[C@@H]2[C@]1(C)CC[C@H]1[C@@]2(C)CC[C@@]2(C)[C@@H]3CC(C)(C)CC[C@]3(C)CC[C@]12C [Friedelin],104.6 ± 0.7%,
Steponine,103.4 ± 1.3%,
COc1ccc2c(c1O)Oc1c(O)ccc3c1[C@H](C2)N(C)CC3 [Claviculine],100.3 ± 2.5%,
CC1=CC(=O)C(C(C)C)=CC1=O [Thymoquinone],104.3 ± 2.2%,
COc1cc(C[C@H]2C(=O)OC[C@@H]2Cc2ccc3c(c2)OCO3)cc(OC)c1OC [Yatein],,μ (% activation) ± σ: 100.7 ± 2.5%
demethylrubraxanthone,,IC50 (read-out: IRE1 IC50): 6.5 ± 0.4 µM
C[n+]1cc2c3c(ccc2c2ccc4cc5c(cc4c21)OCO5)OCO3 [Sanguinarine],,μ (% activation) ± σ: 91.1 ± 3.1%
COc1cc(/C=C/C(=O)CC(=O)/C=C/c2ccc(O)c(OC)c2)ccc1O [Curcumine],177.3 ± 10.3%,
2-Deprenyl-rheediaxanthone B,97.3 ± 4.2%,
COc1cc2c(cc1OC)C1Cc3ccc(OC)c(OC)c3C(=O)N1CC2 (racemic) [(±)-8-Oxotetrahydropalmatine],99.6 ± 2.8%,
CC1=C[C@H]2c3c(c(O)c(O)c4oc5cc(O)cc(O)c5c(=O)c34)[C@H](c3cc(O)c(O)c4oc5cc(O)cc(O)c5c(=O)c34)[C@H]2C(C)(C)C1 [Griffipavixanthone],96.8 ± 1.3%,
Oc1cc(O)c2c(c1)O[C@H](c1ccc(O)c(O)c1)[C@H](O)C2 [Epicatechin],101.4 ± 0.4%,
O=C(CCc1ccc(O)cc1)c1c(O)cc(O)cc1O [Phloretin],101.8 ± 1.7%,
C=CC(C)(C)c1c2c(c(O)c3c(=O)c4cccc(O)c4oc13)C=CC(C)(C)O2 [Caloxanthone C],104.2 ± 2.8%,
CC(C)=CCC/C(C)=C/COc1c2ccoc2cc2oc(=O)ccc12 [Bergamotine],103.5 ± 1.6%,

Compound,μ (% activation) ± σ [1],further results
CC(C)=CCc1c(O)c(CC=C(C)C)c2oc3c(O)ccc(O)c3c(=O)c2c1O [Gartanin],95.1 ± 5.5%,
CC1(C)C=Cc2c(cc3oc4ccc5c(c4c(=O)c3c2O)C=CC(C)(C)O5)O1 [Thwaitesixanthone],101.1 ± 2.1%,
Caledonixanthone K,100.7 ± 2%,
"Cc1cc(=O)oc2cc(O)cc(O)c12 [5,7-dihydroxy-4-methyl coumarin]",104.0 ± 1.4%,
(−)-monomethylester-15 dehydropinifolic acid,103.8 ± 1.1%,
"C[C@H](C/C=C/C(C)(C)O)[C@@H]1CC[C@]2(C)C3=C(CC[C@@]12C)[C@@]1(C)CC[C@H](O)C(C)(C)C1CC3 (stereo partly drawn) [(20R,23E)-Eupha-8,23-diene-3b,25-diol]",100.6 ± 2.5%,
"O=c1c2ccc(O)c(O)c2oc2cc(O)cc(O)c12 [1,3,5,6-tétra-hydroxy-xanthone]",103.9 ± 0.7%,
C[C@@H]1O[C@@H](Oc2c(-c3ccc(O)c(O)c3)oc3cc(O)cc(O)c3c2=O)[C@H](O)[C@H](O)[C@H]1O [Quercitrin],,μ (% activation) ± σ: 102 ± 2.4%
CC(C)=C/C=C/C(C)=C/[C@H]1CC[C@@H]2[C@@]3(C)CC[C@H](O)C(C)(C)[C@@H]3CC[C@@]2(C)[C@@]12COC(=O)C2 [Ebelin lactone],102.5 ± 0.9%,
CC(C)=CCc1c(O)cc2oc3ccc4c(c3c(=O)c2c1O)C=CC(C)(C)O4 [Calothwaitesixanthone],104.6 ± 1.4%,
COc1ccc2cc1Oc1ccc(cc1)C[C@H]1c3c(cc4c(c3Oc3cc5c(cc3OC)CCN(C)[C@@H]5C2)OCO4)CCN1C [Cepharantine],102.2 ± 4.0%,
CC(C)=CCOC(=O)/C=C/c1ccc(O)c(O)c1 [Prenyl caffeate],102.4 ± 0.8%,
Cycleanine,,μ (% activation) ± σ: 102.2 ± 1.9%
C=CCc1ccc(O)c(-c2ccc(O)c(CC=C)c2)c1 [Honokiol],93.9 ± 2%,
Mammea A/AA cycloF,93.8 ± 1.1%,
(±)-Lindératine,103.0 ± 2.1%,
"O=c1c2cc(O)ccc2oc2c(O)c(O)c(O)c(O)c12 [2,5,6,7,8-Pentahydroxyxanthone]",102.3 ± 0.7%,
CC(=O)O[C@H]1C(=O)c2c(O)cc(O)cc2O[C@@H]1c1ccccc1 [Pinobanksine 3-O-acetate],100.3 ± 2.7%,
"O=C1C=CC(=O)c2c(O)cccc21 [Juglone, 5-hydroxy-1,4-naphthalenedione]",43.5 ± 3.7%,IC50: 12.8 µM; IRE1 inhibition (in words): inhibit IRE1 in a micromolar scale
O=c1ccc2ccc(O)cc2o1 [Umbelliferone],105.3 ± 2.3%,
Anibacanine,100.2 ± 3.6%,
CC(C)=CCC[C@@H](C)[C@@H]1CC[C@]2(C)C3=C(CC[C@@]12C)[C@@]1(C)CC[C@H](O)C(C)(C)[C@@H]1CC3 [Euphol],105.3 ± 0.7%,
"COc1c(OC)c(O)c2c(=O)c(O)c(-c3ccccc3)oc2c1OC [3,5-dihydroxy-6,7,8-trimethoxyflavone]",98.3 ± 2.4%,
O=C1c2c(O)cc(O)cc2O[C@@H](c2ccc(O)cc2)[C@@H]1c1c(O)cc(O)c2c(=O)cc(-c3ccc(O)cc3)oc12 (racemic) [(±)-Volkensiflavone],95.8 ± 0.5%,

Compound,μ (% activation) ± σ [1],further results
(−)-Argemonine,,μ (% activation) ± σ: 102.6 ± 2.0%
O=c1cc(-c2ccccc2)oc2cc(O)cc(O)c12 [Chrysine],,μ (% activation) ± σ: 91.7 ± 1.4%
"5,6-O-dimethyl-2-deprenylrheediaxanthone",100.3 ± 1.6%,
COc1cc2oc3cc(O)c(OC)c(CC=C(C)C)c3c(=O)c2c(O)c1CC=C(C)C [β-mangostin],100.3 ± 4.7%,
CC(C)=CCc1c(O)cc2oc3c(CC=C(C)C)c(O)c(O)c(CC=C(C)C)c3c(=O)c2c1O [Garcinon E],101.6 ± 3.9%,
O=C(/C=C/c1ccc(O)c(O)c1)OCc1ccccc1 [Benzyl caffeate],104.6 ± 4.8%,
"COc1cccc2c1C(=O)c1nccc3cc4c(c-2c13)OCO4 [Oxostephanine, 15-methoxy-3,5-dioxa-11-azapentacyclo [10.7.1.0^2,6.0^8,20.0^14,19]icosa-(20),2(6),7,9,11,14(19),15,17-octaen-13-one]",77.5 ± 0.9%,
CC(C)=CCc1c(O)c(CC=C(C)C)c2oc3c(O)cccc3c(=O)c2c1O [8-deoxygartanin],96.6 ± 5.7%,
C=C(CO)C(=O)O[C@H]1CC(=C)[C@@H]2C[C@H](O)C(=C)[C@@H]2[C@H]2OC(=O)C(=C)[C@@H]21 [Cynaropicrin],,μ (% activation) ± σ: 105.6 ± 0.7%
CCCC(=O)c1c(O)c(CC=C(C)C)c2oc(=O)cc(-c3ccccc3)c2c1O [Mammea A/AC],102.4 ± 1.7%,
COc1cc(C(=O)O)cc(OC)c1O [Syringic acid],97.8 ± 3.1%,
C=CC(C)(C)c1c(OC)cc(O)c2c(=O)c3ccc(O)c(O)c3oc12 [Isocudraniaxanthone B],94.3 ± 0.9%,
"O=C(/C=C/c1ccc(O)c(O)c1)OC/C=C/c1ccccc1 [Cinnamyl caffeate, [(E)-3-phenylprop-2-enyl] (E)-3-(3,4-dihydroxyphenyl)prop-2-enoate]",73.4 ± 1.7%,IRE1 inhibition (in words): inhibit IRE1 in a micromolar scale; IC50 (read-out: IRE1 IC50): 21.6 µM
O=C1c2c(O)cc(O)cc2O[C@H](c2ccccc2)[C@H]1O [Pinobanksine],101.5 ± 0.8%,
COc1c(O)cc2oc3cc(O)c(CC=C(C)C)c(O)c3c(=O)c2c1CC=C(C)C [α-mangostin],67.5 ± 0.2%,
Tetraprenyltoluquinone,100.8 ± 1.5%,
Oc1cc(O)c2c(c1)O[C@H](c1ccc(O)c(O)c1)[C@H](O)[C@H]2c1c(O)cc(O)c2c1O[C@H](c1ccc(O)c(O)c1)[C@H](O)C2 [Procyanidin B2],,μ (% activation) ± σ: 101.6 ± 1%
Pseudoanibacanine,100.0 ± 3.7%,
O=c1cc(-c2ccc(O)c(-c3c(O)cc(O)c4c(=O)cc(-c5ccc(O)cc5)oc34)c2)oc2cc(O)cc(O)c12 [Amentoflavone],101.8 ± 2.3%,
CC(Cc1ccccc1)NCCCc1ccccc1 (stereo not shown) [N-(3-Phenyl-n-propyl)-1-phenyl-2-aminopropane],,μ (% activation) ± σ: 102.6 ± 1%
Cc1cc(O)c2c(c1)C(=O)c1cc(O)cc(O)c1C2=O [Emodin],104.5 ± 3.1%,
c1cc2c(c3c1C[C@H]1c4cc5c(cc4CCN1C3)OCO5)OCO2 [Stylopine],101.4 ± 4.1%,
"COc1cc2c(cc1O)C1Cc3cc(OC)c(OC)cc3C(C2)N1C (single isomer, unassigned; (-)) [(−)-Norargemonine]",,μ (% activation) ± σ: 101.7 ± 3.6%
O=c1c(O)c(-c2ccc(O)c(O)c2)oc2cc(O)cc(O)c12 [Quercetin],98.5 ± 1.4%,
